Results on eleven compounds are retold here after ChEMBL document CHEMBL3867477 (Bioorg Med Chem Lett, 2016).

Molecules are shown by their SMILES. ≈ marks a conversion by molar mass, not a printed value. Some results are limits rather than exact numbers.

The target of one data set is T1, Orexin receptor type 2 (Homo sapiens, UniProt O43614).
T1 sequence (O43614 whole entry): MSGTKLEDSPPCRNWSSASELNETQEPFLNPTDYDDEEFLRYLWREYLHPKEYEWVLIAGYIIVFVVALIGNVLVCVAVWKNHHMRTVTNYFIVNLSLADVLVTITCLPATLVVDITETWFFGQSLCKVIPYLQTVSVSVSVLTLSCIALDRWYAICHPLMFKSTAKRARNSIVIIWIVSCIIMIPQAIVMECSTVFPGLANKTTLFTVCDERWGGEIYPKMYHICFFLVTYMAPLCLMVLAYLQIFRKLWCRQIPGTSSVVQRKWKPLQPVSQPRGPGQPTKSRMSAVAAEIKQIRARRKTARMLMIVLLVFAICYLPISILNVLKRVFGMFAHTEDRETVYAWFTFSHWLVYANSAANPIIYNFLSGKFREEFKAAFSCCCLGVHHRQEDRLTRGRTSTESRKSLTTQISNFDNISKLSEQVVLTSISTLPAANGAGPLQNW
Put plainly: Displacement of (2S)-N-(2-pyrrol-1-ylphenyl)-1-[2-[1-(tritritiomethyl)benzimidazol-2-yl]sulfanylacetyl]pyrrolidine-2-carboxamide from human OX2 receptor expressed on CHO cell membrane measured after 3 hrs by TopCount method. The format is cell membranes.

In data set [1] the target is Voltage-dependent L-type calcium channel subunit alpha-1C (Homo sapiens, UniProt Q13936). Put plainly: Inhibition of Cav1.2 (unknown origin).
Sequence of Voltage-dependent L-type calcium channel subunit alpha-1C (Q13936 whole entry): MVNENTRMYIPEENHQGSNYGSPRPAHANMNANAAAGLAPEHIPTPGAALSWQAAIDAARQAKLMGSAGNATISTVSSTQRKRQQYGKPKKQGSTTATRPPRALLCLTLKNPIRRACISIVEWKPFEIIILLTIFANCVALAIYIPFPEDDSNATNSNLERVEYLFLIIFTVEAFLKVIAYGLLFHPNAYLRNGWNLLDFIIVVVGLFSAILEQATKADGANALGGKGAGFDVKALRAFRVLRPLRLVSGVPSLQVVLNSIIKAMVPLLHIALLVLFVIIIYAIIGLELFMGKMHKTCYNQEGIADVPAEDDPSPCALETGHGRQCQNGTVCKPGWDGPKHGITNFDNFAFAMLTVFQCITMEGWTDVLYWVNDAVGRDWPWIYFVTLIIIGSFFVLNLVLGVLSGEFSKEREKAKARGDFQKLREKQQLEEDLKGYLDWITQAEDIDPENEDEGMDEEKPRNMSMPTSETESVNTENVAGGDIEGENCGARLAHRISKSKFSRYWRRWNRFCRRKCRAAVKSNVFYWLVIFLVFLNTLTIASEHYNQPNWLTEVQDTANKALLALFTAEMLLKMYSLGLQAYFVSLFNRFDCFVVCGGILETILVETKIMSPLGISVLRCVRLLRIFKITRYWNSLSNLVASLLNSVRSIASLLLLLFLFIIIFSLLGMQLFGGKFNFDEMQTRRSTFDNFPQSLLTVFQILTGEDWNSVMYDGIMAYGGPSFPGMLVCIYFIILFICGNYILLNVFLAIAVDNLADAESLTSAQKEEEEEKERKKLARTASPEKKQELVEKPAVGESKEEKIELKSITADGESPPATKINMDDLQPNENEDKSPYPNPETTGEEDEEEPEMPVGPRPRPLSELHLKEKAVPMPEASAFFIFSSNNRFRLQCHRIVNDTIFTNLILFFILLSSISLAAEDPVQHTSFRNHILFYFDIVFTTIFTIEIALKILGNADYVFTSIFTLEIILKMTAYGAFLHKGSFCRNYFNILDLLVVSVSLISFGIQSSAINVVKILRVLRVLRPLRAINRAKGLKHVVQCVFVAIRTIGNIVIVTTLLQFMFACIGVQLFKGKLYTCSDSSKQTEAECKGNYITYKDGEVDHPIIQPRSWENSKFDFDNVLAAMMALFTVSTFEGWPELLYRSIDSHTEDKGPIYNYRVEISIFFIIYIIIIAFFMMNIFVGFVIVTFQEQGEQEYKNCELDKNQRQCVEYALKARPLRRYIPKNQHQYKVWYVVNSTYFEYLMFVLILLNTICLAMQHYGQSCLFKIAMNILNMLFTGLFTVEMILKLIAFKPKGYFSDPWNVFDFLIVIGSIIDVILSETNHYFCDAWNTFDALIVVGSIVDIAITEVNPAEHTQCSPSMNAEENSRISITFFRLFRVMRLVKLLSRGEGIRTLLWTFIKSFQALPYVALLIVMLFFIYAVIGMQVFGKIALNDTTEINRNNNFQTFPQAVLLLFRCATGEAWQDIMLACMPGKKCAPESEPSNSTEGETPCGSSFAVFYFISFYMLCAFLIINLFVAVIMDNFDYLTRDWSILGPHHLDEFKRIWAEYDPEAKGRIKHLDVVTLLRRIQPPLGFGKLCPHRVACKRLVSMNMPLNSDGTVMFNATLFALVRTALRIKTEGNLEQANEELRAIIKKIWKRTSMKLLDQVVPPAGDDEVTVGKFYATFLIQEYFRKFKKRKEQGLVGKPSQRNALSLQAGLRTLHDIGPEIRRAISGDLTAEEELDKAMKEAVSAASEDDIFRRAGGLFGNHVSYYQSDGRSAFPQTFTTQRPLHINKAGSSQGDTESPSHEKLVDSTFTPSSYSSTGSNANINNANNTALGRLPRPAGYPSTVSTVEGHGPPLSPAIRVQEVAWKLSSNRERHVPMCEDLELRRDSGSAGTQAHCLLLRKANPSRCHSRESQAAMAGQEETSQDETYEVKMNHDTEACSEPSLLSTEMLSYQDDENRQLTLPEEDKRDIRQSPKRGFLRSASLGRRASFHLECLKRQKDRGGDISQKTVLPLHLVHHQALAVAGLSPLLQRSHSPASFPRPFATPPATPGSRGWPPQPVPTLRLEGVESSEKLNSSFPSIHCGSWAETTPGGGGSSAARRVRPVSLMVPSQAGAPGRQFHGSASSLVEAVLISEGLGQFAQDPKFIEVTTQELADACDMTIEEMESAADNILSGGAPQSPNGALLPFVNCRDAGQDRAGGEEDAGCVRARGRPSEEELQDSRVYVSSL
Data set [2] is described as follows: Solubility of the compound. It counts as physicochemical.
The test system of a further data set is CHO. Put plainly: Selectivity index, ratio of Ki for human OX2 receptor expressed on CHO cell membrane to Ki for Ile408-Val variant human OX1 receptor expressed on CHO cell membrane. It counts as cell-based.
In the next data set the target is Cytochrome P450 2C9 (Homo sapiens, UniProt P11712). Put plainly: Inhibition of CYP2C9 (unknown origin). The format is ADME.
Sequence of Cytochrome P450 2C9 (P11712 whole entry): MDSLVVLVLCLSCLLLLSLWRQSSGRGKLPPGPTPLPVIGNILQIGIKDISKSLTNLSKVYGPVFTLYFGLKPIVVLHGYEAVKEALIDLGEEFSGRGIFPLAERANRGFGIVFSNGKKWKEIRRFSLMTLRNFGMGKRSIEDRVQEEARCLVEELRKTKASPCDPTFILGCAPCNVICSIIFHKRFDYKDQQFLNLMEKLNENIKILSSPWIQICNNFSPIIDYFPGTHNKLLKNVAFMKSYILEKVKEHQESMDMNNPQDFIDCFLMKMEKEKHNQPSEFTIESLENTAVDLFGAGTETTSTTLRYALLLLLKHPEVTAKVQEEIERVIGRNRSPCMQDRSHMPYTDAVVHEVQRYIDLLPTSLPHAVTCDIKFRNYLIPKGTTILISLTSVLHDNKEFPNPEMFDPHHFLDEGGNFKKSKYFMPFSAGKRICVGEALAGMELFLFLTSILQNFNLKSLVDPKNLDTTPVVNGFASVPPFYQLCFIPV
A short description of data set [3]: Displacement of (2S)-N-(2-phenylphenyl)-1-[2-[1-(tritritiomethyl)benzimidazol-2-yl]sulfanylacetyl]pyrrolidine-2-carboxamide from human OX1 receptor Ile408-Val mutant expressed on CHO cell membrane measured after 3 hrs by TopCount method. The format is cell membranes.
A further data set has as its target Cytochrome P450 3A4 (Homo sapiens, UniProt P08684). As to the kind of experiment: Inhibition of CYP3A4 (unknown origin). The format is ADME.
Data set [4] can be described thus: Aqueous solubility of the compound at pH 7. It counts as physicochemical. The following applies: aqueous medium.

Sequence of Cytochrome P450 3A4 (P08684 whole entry): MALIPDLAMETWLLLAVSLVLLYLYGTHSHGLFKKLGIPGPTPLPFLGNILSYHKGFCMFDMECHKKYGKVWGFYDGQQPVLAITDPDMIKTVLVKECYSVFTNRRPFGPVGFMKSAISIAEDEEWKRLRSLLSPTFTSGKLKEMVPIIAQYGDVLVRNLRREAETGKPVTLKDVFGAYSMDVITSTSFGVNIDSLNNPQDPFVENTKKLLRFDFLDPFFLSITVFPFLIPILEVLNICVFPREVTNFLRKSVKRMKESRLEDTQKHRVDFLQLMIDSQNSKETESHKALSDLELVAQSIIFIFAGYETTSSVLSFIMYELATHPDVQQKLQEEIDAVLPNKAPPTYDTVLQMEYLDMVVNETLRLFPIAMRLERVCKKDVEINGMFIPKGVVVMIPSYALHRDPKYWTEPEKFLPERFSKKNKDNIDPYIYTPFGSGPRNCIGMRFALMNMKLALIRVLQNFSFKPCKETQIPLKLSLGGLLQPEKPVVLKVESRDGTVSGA

In the case of `Cc1ccccc1C(=O)N1CCC(F)(F)C(Oc2ccc3ccccc3n2)C1` (racemic), the Ki at Orexin receptor type 2 is greater than 2630 nM; in data set [3] it was 52 nM. Further, the “inhibition (INH)” value (in data set [1]; against Cytochrome P450 2C9; against Cytochrome P450 3A4) was “Active” in each case. In addition, in data set [2], the solubility entry is reported as “Insoluble”. In the data set with CHO, the Ratio Ki was greater than 51.

In the case of `O=C(c1ccccc1-n1nccn1)N1CCC(F)(F)C(Oc2cc3ccccc3cn2)C1` (centres undefined), the Ki was 379 nM at Orexin receptor type 2 and 59 nM in data set [3]. Moreover, the “inhibition (INH)” value (in data set [1]; at Cytochrome P450 2C9; at Cytochrome P450 3A4) was “Active” each time. Also, the solubility entry in data set [2] is on record as “Insoluble”. The Ratio Ki with CHO amounted to 6.4.

Take `O=C(c1ccccc1-n1nccn1)N1CCC(F)(F)C(Oc2ncc3ccccc3n2)C1` (centres undefined): the Ki at Orexin receptor type 2 was found to be 1470 nM; in data set [3], 13 nM. Also, the “inhibition (INH)” value (in data set [1]; at Cytochrome P450 2C9; on Cytochrome P450 3A4) was “Active” each time. The solubility entry in data set [2] is “Insoluble”. The Ratio Ki with CHO was found to be 113.

For the compound `O=C(c1ccc(F)cc1)N1CCC(F)(F)C(Oc2ccc3ccccc3n2)C1` (racemic), the values for the Ki (on Orexin receptor type 2; in data set [3]) were greater than 4380 nM and 1080 nM, respectively. The “inhibition (INH)” value (in data set [1]; on Cytochrome P450 2C9; against Cytochrome P450 3A4) was “Active” throughout. Also, the solubility entry in data set [2] is “Insoluble”. Also, in the data set with CHO, the Ratio Ki was greater than 4.

As to `O=C(c1ccccc1-n1nccn1)N1CCC(F)(F)C(Oc2nccc3ccccc23)C1` (centres undefined), the Ki at Orexin receptor type 2 came to 2.8 nM; in data set [3] it was 6.5 nM. In addition, the “inhibition (INH)” value (in data set [1]; against Cytochrome P450 2C9; against Cytochrome P450 3A4) was “Active” in each case. Moreover, the solubility entry in data set [2] is listed as “Insoluble”. In addition, the Ratio Ki in the data set with CHO worked out at 0.43.

`O=C(c1ccccc1-n1nccn1)N1CCC(F)(F)C(Oc2ccccn2)C1` (centres undefined): the Ki on Orexin receptor type 2 is 1040 nM; in data set [3], 4050 nM. Also, the “inhibition (INH)” value (in data set [1]; against Cytochrome P450 2C9; against Cytochrome P450 3A4) was “Active” throughout. Besides, the solubility entry in data set [2] is listed as “Insoluble”. The Ratio Ki in the data set on CHO was 0.26.

Take `O=C(c1ccccc1-n1nccn1)N1CCC(F)(F)C(Oc2nc3ccccc3o2)C1` (centres undefined): the results for the Ki (at Orexin receptor type 2; in data set [3]) were 467 nM and 49 nM, respectively. Moreover, the “inhibition (INH)” value (in data set [1]; at Cytochrome P450 2C9; against Cytochrome P450 3A4) was “Active” each time. Also, in data set [2], the solubility entry is listed as “Insoluble”. In addition, the Ratio Ki with CHO amounted to 9.5.

With `O=C(c1ccccc1F)N1CCC(F)(F)C(Oc2ccc3ccccc3n2)C1` (racemic), the Ki at Orexin receptor type 2 is greater than 1770 nM; in data set [3] it was 23 nM. The “inhibition (INH)” value (in data set [1]; against Cytochrome P450 2C9; against Cytochrome P450 3A4) was “Active” in each case. Further, in data set [2], the solubility entry is recorded as “Insoluble”. The Ratio Ki with CHO is greater than 77.

Take `O=C(c1ccccc1-n1nccn1)N1CCC(F)(F)C(Oc2cccc(C(F)(F)F)n2)C1` (centres undefined): the Ki on Orexin receptor type 2 was determined as 907 nM; in data set [3], 240 nM. Besides, the “inhibition (INH)” value (in data set [1]; against Cytochrome P450 2C9; against Cytochrome P450 3A4) was “Active” in each case. The solubility entry in data set [2] is “Insoluble”. Moreover, in the data set on CHO, the Ratio Ki is 3.8.

As to `O=C(c1cccc2[nH]ccc12)N1CCC(F)(F)[C@@H](Oc2ccc3ccccc3n2)C1`, the results for the Ki (at Orexin receptor type 2; in data set [3]) were 120 nM and 0.5 nM, respectively. Also, in data set [4], the concentration in solution (solubility) came to 13 µM (≈ 5.3 µg/mL). The Ratio Ki with CHO was found to be 240.

Take `O=C(c1ccccc1-n1nccn1)N1CCC(F)(F)C(Oc2ccc(C(F)(F)F)cn2)C1` (centres undefined): the Ki amounted to 467 nM on Orexin receptor type 2 and 14 nM in data set [3]. For the same compound, the “inhibition (INH)” value (in data set [1]; on Cytochrome P450 2C9; against Cytochrome P450 3A4) was “Active” throughout. Also, the solubility entry in data set [2] was “Insoluble”. Moreover, the Ratio Ki in the data set with CHO came out at 33.

For orientation: Ki means a dissociation constant, usually derived from enzyme kinetics or from competition with a known ligand. Broadly, the solubility is the concentration that dissolves in the medium under given conditions. Read a low solubility as little dissolved substance.
